ChEMBL document CHEMBL1127103, “New indole derivatives as potent and selective serotonin uptake inhibitors” (Bioorg Med Chem Lett, 1993)

Key:
[1] = molecular target: Serotonin transporter (Rattus norvegicus); assay: Compound was evaluated for inhibition of 5-HT uptake by measuring its ability to inhibit [3H]paroxetine binding to rat cortical membranes
[2] = molecular target: D(2) dopamine receptor (Mus musculus, UniProt P61168); assay: Tested for its binding affinity against Dopamine receptor D2; showed no appreciable affinity at concentration specified
[3] = molecular target: Muscarinic acetylcholine receptor; assay: Tested for its binding affinity against muscarinic receptor; showed no appreciable affinity at concentration specified; type: protein assay
[4] = molecular target: T1, Alpha-1 adrenergic receptor (Mus musculus, UniProt P97714+P97717+P97718); assay: Tested for its binding affinity against Alpha-1 adrenergic receptor; showed no appreciable affinity at concentration specified; type: protein assay
T1 sequence (P97714 whole entry): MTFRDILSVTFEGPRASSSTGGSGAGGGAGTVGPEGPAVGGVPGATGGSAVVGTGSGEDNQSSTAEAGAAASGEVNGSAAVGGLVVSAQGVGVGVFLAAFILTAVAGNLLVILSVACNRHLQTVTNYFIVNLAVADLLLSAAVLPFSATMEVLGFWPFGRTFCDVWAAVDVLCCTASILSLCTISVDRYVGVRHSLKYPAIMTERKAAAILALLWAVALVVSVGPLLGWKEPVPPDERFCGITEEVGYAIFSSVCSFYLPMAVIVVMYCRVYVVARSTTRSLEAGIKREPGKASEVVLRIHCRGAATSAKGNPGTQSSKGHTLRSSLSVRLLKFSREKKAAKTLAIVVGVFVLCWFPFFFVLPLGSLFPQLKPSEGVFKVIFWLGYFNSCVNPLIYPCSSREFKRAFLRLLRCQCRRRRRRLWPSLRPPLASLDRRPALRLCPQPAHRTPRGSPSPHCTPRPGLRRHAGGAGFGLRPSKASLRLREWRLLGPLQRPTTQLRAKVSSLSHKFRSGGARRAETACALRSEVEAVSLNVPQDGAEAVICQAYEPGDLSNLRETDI
T1 sequence (P97717 whole entry): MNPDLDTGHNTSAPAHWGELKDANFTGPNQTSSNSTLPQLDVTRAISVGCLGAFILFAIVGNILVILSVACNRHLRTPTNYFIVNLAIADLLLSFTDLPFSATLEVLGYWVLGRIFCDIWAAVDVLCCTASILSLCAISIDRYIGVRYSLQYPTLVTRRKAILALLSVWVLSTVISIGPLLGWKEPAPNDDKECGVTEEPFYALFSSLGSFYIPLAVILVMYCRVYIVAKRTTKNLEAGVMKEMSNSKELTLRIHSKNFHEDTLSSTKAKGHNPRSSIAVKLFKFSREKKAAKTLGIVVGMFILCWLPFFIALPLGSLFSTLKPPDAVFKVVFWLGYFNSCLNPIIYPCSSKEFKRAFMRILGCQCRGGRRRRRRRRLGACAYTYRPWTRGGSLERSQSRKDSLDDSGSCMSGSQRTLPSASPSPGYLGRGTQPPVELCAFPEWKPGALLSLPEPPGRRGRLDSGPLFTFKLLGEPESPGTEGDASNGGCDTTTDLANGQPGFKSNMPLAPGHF
T1 sequence (P97718 whole entry): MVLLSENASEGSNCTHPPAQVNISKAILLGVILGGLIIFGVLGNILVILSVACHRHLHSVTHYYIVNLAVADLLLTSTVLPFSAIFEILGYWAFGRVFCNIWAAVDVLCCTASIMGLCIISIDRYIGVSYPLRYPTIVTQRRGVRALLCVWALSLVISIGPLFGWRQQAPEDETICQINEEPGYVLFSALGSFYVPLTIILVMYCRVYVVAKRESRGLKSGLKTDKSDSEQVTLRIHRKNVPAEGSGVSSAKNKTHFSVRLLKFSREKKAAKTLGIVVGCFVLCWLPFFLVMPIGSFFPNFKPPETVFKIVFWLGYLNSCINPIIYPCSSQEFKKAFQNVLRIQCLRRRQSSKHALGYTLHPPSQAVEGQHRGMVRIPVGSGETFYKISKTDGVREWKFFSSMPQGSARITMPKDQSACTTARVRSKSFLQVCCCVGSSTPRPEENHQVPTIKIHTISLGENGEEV

[5] = test system: Mus musculus; assay: Effective dose required for half maximal potentiation of head twitches observed with 5-HTP after subcutaneous administration (1 hr); type: functional; settings: sc
[6] = test system: Mus musculus; assay: Effective dose required for half maximal potentiation of head twitches observed with 5-HTP after oral administration (1 hr 30 min); type: functional

Chain of D(2) dopamine receptor (P61168 whole entry): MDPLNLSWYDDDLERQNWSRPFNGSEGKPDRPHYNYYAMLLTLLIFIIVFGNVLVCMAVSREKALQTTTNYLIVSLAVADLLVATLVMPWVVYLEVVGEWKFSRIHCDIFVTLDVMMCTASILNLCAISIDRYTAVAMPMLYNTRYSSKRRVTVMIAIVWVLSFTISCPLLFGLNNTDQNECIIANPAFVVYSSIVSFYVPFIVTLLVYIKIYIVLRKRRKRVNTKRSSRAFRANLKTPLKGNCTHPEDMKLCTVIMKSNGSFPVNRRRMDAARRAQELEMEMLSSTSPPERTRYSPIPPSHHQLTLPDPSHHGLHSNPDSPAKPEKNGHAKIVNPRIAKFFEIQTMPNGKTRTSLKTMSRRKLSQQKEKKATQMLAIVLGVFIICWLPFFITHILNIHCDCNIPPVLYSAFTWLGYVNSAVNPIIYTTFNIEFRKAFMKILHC

SMILES | IC50 [1] | IC50 [2] | IC50 [3] | IC50 [4] | ED50 [5] | ED50 [6]
CN(CCN1CCC(Cc2c[nH]c3ccc(F)cc23)CC1)S(=O)(=O)c1ccccc1 | 30 nM | > 100 nM | > 100 nM | > 100 nM | – | –
O=C1c2cccc3cccc(c23)C(=O)N1CCN1CCC(Cc2c[nH]c3ccc(F)cc23)CC1 | – | > 100 nM | > 100 nM | > 100 nM | 6.1 mg/kg | 2.3 mg/kg
O=C1N(CCN2CCC(Cc3c[nH]c4ccc(F)cc34)CC2)c2ccccc2C12CC2 | 4 nM | > 100 nM | > 100 nM | > 100 nM | – | > 20 mg/kg
O=S1(=O)N(CCN2CCC(Cc3c[nH]c4ccc(F)cc34)CC2)c2cccc3c2N1CCC3 [RP-68303] | 1.2 nM | – | – | – | 5.1 mg/kg | –
O=S(=O)(NCCN1CCC(Cc2c[nH]c3ccc(F)cc23)CC1)c1ccccc1 | 6 nM | > 100 nM | > 100 nM | > 100 nM | – | > 20 mg/kg
O=C1CSc2ccccc2N1CCN1CCC(Cc2c[nH]c3ccc(F)cc23)CC1 | 1.1 nM | > 100 nM | > 100 nM | > 100 nM | – | > 20 mg/kg
O=C1CN(CCN2CCC(Cc3c[nH]c4ccc(F)cc34)CC2)S(=O)(=O)c2ccccc21 | – | > 100 nM | > 100 nM | > 100 nM | – | > 20 mg/kg
C[Si]1(C)CN(CCN2CCC(Cc3c[nH]c4ccc(F)cc34)CC2)S(=O)(=O)c2ccccc21 | – | > 100 nM | > 100 nM | > 100 nM | – | –
CNCCC(Oc1ccc(C(F)(F)F)cc1)c1ccccc1 (stereo not drawn) [FLUOXETINE] | – | – | – | – | 6.3 mg/kg | –
CN1c2cccc3cccc(c23)N(CCN2CCC(Cc3c[nH]c4ccc(F)cc34)CC2)S1(=O)=O | 3.7 nM | > 100 nM | > 100 nM | > 100 nM | – | > 20 mg/kg
O=S1(=O)c2ccccc2CN1CCN1CCC(Cc2c[nH]c3ccc(F)cc23)CC1 | 1 nM | > 100 nM | > 100 nM | > 100 nM | 4.5 mg/kg | 7.2 mg/kg
O=C1Nc2ccccc2S(=O)(=O)N1CCN1CCC(Cc2c[nH]c3ccc(F)cc23)CC1 | 2.1 nM | > 100 nM | > 100 nM | > 100 nM | – | > 20 mg/kg
O=C1Nc2cccc3cccc(c23)N1CCN1CCC(Cc2c[nH]c3ccc(F)cc23)CC1 | 1.5 nM | > 100 nM | > 100 nM | > 100 nM | 4 mg/kg | 2 mg/kg
COC1=Nc2cccc3cccc(c23)N1CCN1CCC(Cc2c[nH]c3ccc(F)cc23)CC1 | 22.6 nM | > 100 nM | > 100 nM | > 100 nM | – | –
O=S1(=O)Nc2cccc3cccc(c23)N1CCN1CCC(Cc2c[nH]c3ccc(F)cc23)CC1 | 12 nM | > 100 nM | > 100 nM | > 100 nM | – | –
Cn1c(=O)c2ccccc2n(CCN2CCC(Cc3c[nH]c4ccc(F)cc34)CC2)c1=O | 5.9 nM | > 100 nM | > 100 nM | > 100 nM | – | 20 mg/kg
O=c1[nH]c2ccccc2c(=O)n1CCN1CCC(Cc2c[nH]c3ccc(F)cc23)CC1 | 0.5 nM | > 100 nM | > 100 nM | > 100 nM | – | 20 mg/kg
CC1(C)CN(CCN2CCC(Cc3c[nH]c4ccc(F)cc34)CC2)C(=O)c2ccccc21 | 3.8 nM | > 100 nM | > 100 nM | > 100 nM | – | 20 mg/kg
O=C1Cc2ccccc2N1CCN1CCC(Cc2c[nH]c3ccc(F)cc23)CC1 | 3.1 nM | > 100 nM | > 100 nM | > 100 nM | – | –
C[Si]1(C)CN(CCN2CCC(Cc3c[nH]c4ccc(F)cc34)CC2)C(=O)c2ccccc21 | 2.6 nM | > 100 nM | > 100 nM | > 100 nM | – | > 20 mg/kg
